Results from publication PMC9428149, “Tackling recalcitrant Pseudomonas aeruginosa infections in critical illness via anti-virulence monotherapy” (Nature Communications, 2022).
“And” between values parts separate entries of the source, which are not always exact repeats. Equal values may be shown once. “Also recorded” adds a separate entry of the source.

Tests used:
Caco-2 cells = experiment: MTT cytotoxicity, Caco-2; format: cell-based, human; settings: for Cell viability (MTT) relative to Vehicle: Caco-2, replicates
Description: For the determination of cytotoxicity, cell viability was determined using the MTT (3-[4, 5-dimethyl-2-thiazolyl]−2, 5-diphenyl-2H-tetrazolium bromide) assay in the presence and absence of compound (D88). […] The cells were then treated with either vehicle or different concentrations of D88 (10, 20, 30, 40, and 50 µM) for 24 h at 37 °C and 5% CO2. After 24 h, the cells were washed three times with PBS and were incubated in 200 μL PBS containing 200 μg mL^−1 MTT (Sigma-Aldrich) in a 96-well culture plate for 2 h at 37 °C and 5% CO2. Following incubation, the supernatant was discarded, and the cells were lysed in 95% isopropanol and 5% formic acid.

PA14 burn-site infection = experiment: Bacterial dissemination and load (CFU) in burn-site infection model; format: in vivo, mouse
TNF-α = experiment: Ileal TNF-α ELISA; format: in vivo, mouse; settings: burn + PA14 + D88, 22 h
Description: For the group supplemented with our MvfR-inhibiting compound (D88), mice received five subcutaneous injections (at the nape of the animals) at 1, 4, 8, 12, and 18 h post-BI, at a dose of 24 mg kg^−1 body weight. D88 was prepared in a 40% Captisol vehicle. Control groups received equivalent doses of 40% Captisol vehicle.
Distal ileal TNF-α and IL-6 were quantified using the mouse TNF-α enzyme-linked immunosorbent assay [ELISA] Ready-SET-Go kit (eBioscience; San Diego, CA, USA) and the Mouse IL-6 DuoSet ELISA (R&D Systems) respectively, as per the manufacturer’s instructions.

N#Cc1ccc(NC(=O)C(F)C(=O)Nc2ccc(Oc3ccccc3)cc2)cc1 (stereo not shown) [D88]
cell viability (Caco-2 cells; Caco-2, 10-50 µM, 24 h): None of the used compound concentrations exerted any cytotoxic effect; also recorded: no significant changes in cell viability
Cell viability (MTT) relative to Vehicle (Caco-2 cells; 10 μM): 100.58 and 104.90 and 98.04 and 98.93 and 106.77 and 103.03
Cell viability (MTT) relative to Vehicle (Caco-2 cells; 20 μM): 88.76 and 107.49 and 114.33 and 95.92 and 103.96 and 102.97
Cell viability (MTT) relative to Vehicle (Caco-2 cells; 30 μM): 90.12 and 104.03 and 109.17 and 85.43 and 91.84 and 104.53
Cell viability (MTT) relative to Vehicle (Caco-2 cells; 40 μM): 102.40 and 93.65 and 104.99 and 92.78 and 93.27 and 104.68
Cell viability (MTT) relative to Vehicle (Caco-2 cells; 50 μM): 105.69 and 94.78 and 111.93 and 95.33 and 96.54 and 98.13
bacterial dissemination to the intestinal tissues (ileum and colon) (PA14 burn-site infection; burn + PA14, D88, 22 h): significantly reduced
bacterial load at the inoculation site (PA14 burn-site infection; burn + infection, D88, 22 h): not affected
bacterial load at the site of infection (CFUs) (PA14 burn-site infection; infected and D88 treated animals): ~1 × 10^8
mean ileal TNF-α level (TNF-α): 381 pg mL^−1 g^−1 tissue
